In ChEMBL document CHEMBL5537194, “Tight-Binding Small-Molecule Carboxylesterase 2 Inhibitors Reduce Intracellular Irinotecan Activation” (J Med Chem, 2024):
pIC50: −log10 of the molar value.

Experiments:
Cocaine esterase = biological target: T1, Cocaine esterase (Homo sapiens, UniProt O00748); experiment: Inhibition of human recombinant CES2 activity assessed as fluorescence of the AP product using Benz-AP as substrate
T1 sequence (O00748 whole entry): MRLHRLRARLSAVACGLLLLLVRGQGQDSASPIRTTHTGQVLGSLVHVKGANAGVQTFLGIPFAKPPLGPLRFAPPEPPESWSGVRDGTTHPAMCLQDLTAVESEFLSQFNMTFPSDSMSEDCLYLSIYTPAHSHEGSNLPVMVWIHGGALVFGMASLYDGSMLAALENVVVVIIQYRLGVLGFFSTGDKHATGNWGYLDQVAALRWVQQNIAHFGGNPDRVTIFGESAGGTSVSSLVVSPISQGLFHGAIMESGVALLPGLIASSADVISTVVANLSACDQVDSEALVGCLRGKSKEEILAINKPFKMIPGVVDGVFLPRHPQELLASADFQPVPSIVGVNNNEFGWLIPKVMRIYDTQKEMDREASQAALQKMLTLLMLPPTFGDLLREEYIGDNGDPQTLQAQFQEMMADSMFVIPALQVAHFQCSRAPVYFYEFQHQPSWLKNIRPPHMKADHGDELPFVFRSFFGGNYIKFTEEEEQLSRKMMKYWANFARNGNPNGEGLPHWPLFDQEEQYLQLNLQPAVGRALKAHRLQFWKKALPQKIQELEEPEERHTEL

CES2 (cocaine esterase) [1] = biological target: T2, CES2 (cocaine esterase) (Homo sapiens, UniProt O00748); experiment: Inhibition of human recombinant CES2 activity assessed as fluorescence of the AP product using Benz-AP as substrate by measuring residual activity at 40 uM relative to control; conditions: recombinant CES2, probe Benz-AP
T2 sequence (O00748 whole entry): T1 sequence (O00748 whole entry)

[2] = Inhibition of human CES1 activity at 40 uM measured after 20 mins
CES2 (cocaine esterase) [3] = biological target: T2, CES2 (cocaine esterase); experiment: in vitro; conditions: recombinant CES2, probe CPT-11 (conversion to SN-38)
PANC-1 = experiment: Cytotoxicity against human PANC-1 cells assessed as cell viability incubated for 14 days by crystal violet-based clonogenic assay; conditions: PANC-1, 336 h

| SMILES | pIC50 (Cocaine esterase) | activity at 40 µM (CES2 (cocaine esterase) [1]) | inhibition at 10 min, 12 µM (CES2 (cocaine esterase) [3]) | pIC50 [2] | pIC50 (PANC-1) |
| --- | --- | --- | --- | --- | --- |
| CC(C)c1ccccc1OC(=O)NCCc1ccc2ccccc2c1 | – | – | – | 7.64 | – |
| O=C(CSc1cn(CC(=O)N2CCCC2)c2ccccc12)Nc1ccc(F)cc1F | > 8.00 | 0.9% | 91% | – | – |
| COc1cc2c(cc1OC)C(C)N(C(=O)c1cc3c(s1)-c1ccccc1S(=O)(=O)C3)CC2 (configuration not stated) | > 8.00 | 13% | 31% | – | – |
| CCn1c(=O)c2sc(N3CCCC3)nc2n(CC(=O)Nc2cccc(Cl)c2C)c1=O | – | 37% | 51% | – | – |
| CCc1c2c(nc3ccc(OC(=O)N4CCC(N5CCCCC5)CC4)cc13)-c1cc3c(c(=O)n1C2)COC(=O)[C@]3(O)CC [IRINOTECAN] | – | – | – | – | 4.96 |

Continued, in another order:

| pIC50 (Cocaine esterase) | activity at 40 µM (CES2 (cocaine esterase) [1]) | inhibition at 10 min, 12 µM (CES2 (cocaine esterase) [3]) | SMILES | pIC50 [2] | pIC50 (PANC-1) |
| --- | --- | --- | --- | --- | --- |
| 7.74 | 0.2% | – | Cc1ccc(CN2Cc3cc4ccc(C)c(C)c4nc3OC2=O)o1 | 7.21 | – |
| > 8.00 | 3% | 63% | Cc1ccc(Nc2nc(C(=O)NCc3ccccc3)cc3occc23)cc1 | – | – |
| 6.75 | -0.17% | 95% | CC(C)CN1C(=O)CCc2cc(NC(=O)Cc3cccc(F)c3)ccc21 | – | – |
| 7.18 | 1.3% | 94% | CCOc1ccc2ncc(S(=O)(=O)c3ccc(OC)cc3)c(N3CCC4(CC3)OCCO4)c2c1 | – | – |
